Columns and labels:
Assay in all cases: relative viability (nuclei count vs DMSO), 5 days (fraction); higher = more cells survive
[1] = compound: CS(=O)(=O)c1ccc(C(=O)Nc2ccc(Cl)c(-c3ccccn3)c2)c(Cl)c1 [Vismodegib] + Cc1nc(Nc2ncc(C(=O)Nc3c(C)cccc3Cl)s2)cc(N2CCN(CCO)CC2)n1 [Dasatinib] (partner 0.075 µM)
Procedure, shortened: (§1)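 Lung cancer cell lines in 1536-well plates got either a single drug or a fixed anchor-drug dose together with five library-drug doses (not always all listed) in √10 steps, by pin tool, on the day after seeding. Nuclei were counted after 5 days, and relative viability is the treated-to-vehicle ratio of nuclei counts. Values are medians of duplicate plates.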

[2] = compound: CS(=O)(=O)c1ccc(C(=O)Nc2ccc(Cl)c(-c3ccccn3)c2)c(Cl)c1 [Vismodegib] + N=C(N)NC(=N)NCCc1ccccc1 [Phenformin] (partner 250 µM)
Procedure, shortened: as §1

[3] = compound: CS(=O)(=O)c1ccc(C(=O)Nc2ccc(Cl)c(-c3ccccn3)c2)c(Cl)c1 [Vismodegib] + NC(=O)Nc1cc(-c2cccc(F)c2)sc1C(=O)N[C@H]1CCCNC1 [AZD7762] (partner 0.2 µM)
Procedure, shortened: as §1

[4] = compound: N#CC[C@H](C1CCCC1)n1cc(-c2ncnc3[nH]ccc23)cn1 [Ruxolitinib] + Nc1ncn([C@H]2C[C@H](O)[C@@H](CO)O2)c(=O)n1 [Decitabine] (partner 2 µM)
Procedure, shortened: as §1

Cell Line	relative viability ([1]; first compound 0.08 µM)	relative viability ([1]; first compound 0.253 µM)	relative viability ([1]; first compound 0.8 µM)	relative viability ([1]; first compound 2.53 µM)	relative viability ([1]; first compound 8 µM)	relative viability ([2]; first compound 0.08 µM)	relative viability ([2]; first compound 0.253 µM)	relative viability ([2]; first compound 0.8 µM)	relative viability ([2]; first compound 2.53 µM)	relative viability ([2]; first compound 8 µM)	relative viability ([3]; first compound 0.08 µM)	relative viability ([3]; first compound 0.253 µM)	relative viability ([3]; first compound 0.8 µM)	relative viability ([3]; first compound 2.53 µM)	relative viability ([3]; first compound 8 µM)	relative viability ([4]; first compound 0.08 µM)	relative viability ([4]; first compound 0.253 µM)	relative viability ([4]; first compound 0.8 µM)	relative viability ([4]; first compound 2.53 µM)	relative viability ([4]; first compound 8 µM)
NCI-H2126	0.666	0.57	0.554	0.544	0.473	0.529	0.517	0.482	0.493	0.506	1.08	0.912	0.978	0.933	1.03	0.559	0.594	0.584	0.631	0.635
NCI-H2170	0.542	0.623	0.627	0.62	0.639	0.416	0.409	0.444	0.433	0.39	0.913	0.838	0.974	0.866	0.909	0.499	0.436	0.496	0.425	0.427
NCI-H2342	0.313	0.316	0.298	0.344	0.322	0.632	0.612	0.581	0.475	0.529	0.576	0.479	0.633	0.362	0.416	0.706	0.665	0.777	0.783	0.667
NCI-H2347	0.281	0.35	0.331	0.272	0.293	0.336	0.477	0.448	0.361	0.464	0.774	0.718	0.782	0.83	0.799	0.614	0.602	0.65	0.563	0.62
NCI-H2405	0.214	0.228	0.212	0.235	0.239	0.336	0.386	0.381	0.381	0.39	0.739	0.711	0.637	0.706	0.73	0.765	0.786	0.792	0.682	0.424
NCI-H3122	0.871	0.823	0.811	0.862	0.867	0.377	0.356	0.362	0.365	0.36	0.959	0.953	0.959	0.965	0.955	0.47	0.387	0.429	0.302	0.389
PC-3 [JPC-3]	0.947	0.985	1.03	0.974	0.924	0.483	0.48	0.457	0.483	0.483	0.824	0.715	0.743	0.729	0.708		0.856	0.899	0.754	0.718
PC-14	0.25	0.235	0.27	0.225	0.244	0.658	0.444	0.567	0.512	0.602	0.301	0.326	0.458	0.272	0.353		0.282	0.207	0.153	0.156
RERF-LC-KJ	0.779	0.676	0.75	0.758	0.768	0.422	0.427	0.432	0.437	0.455	1.09	0.881	0.959	0.974	0.967	0.689	0.812	0.791	0.719	0.589
SW 900	0.669	0.543	0.585	0.763	0.536	0.615	0.612	0.718	0.744	0.676	0.474	0.539	0.689		0.61	0.426	0.495	0.475	0.445	0.41
